{
  "source": "paper PMC7782499",
  "about": "“Progerinin, an optimized progerin-lamin A binding inhibitor, ameliorates premature senescence phenotypes of Hutchinson-Gilford progeria syndrome” (Communications Biology, 2021)",
  "key": {"progerin-lamin A binding": {"target": "T1, progerin-lamin A binding (Homo sapiens, UniProt P02545)", "T1 construct": "expressed in transfected cells; host or cells: HEK293 (GFP-progerin); the GST-lamin A bait is a recombinant protein, with E. coli B834 (DE3) named for the lamin A/C fragments", "T1 sequence (P02545 1-611 isoform P02545-6)": "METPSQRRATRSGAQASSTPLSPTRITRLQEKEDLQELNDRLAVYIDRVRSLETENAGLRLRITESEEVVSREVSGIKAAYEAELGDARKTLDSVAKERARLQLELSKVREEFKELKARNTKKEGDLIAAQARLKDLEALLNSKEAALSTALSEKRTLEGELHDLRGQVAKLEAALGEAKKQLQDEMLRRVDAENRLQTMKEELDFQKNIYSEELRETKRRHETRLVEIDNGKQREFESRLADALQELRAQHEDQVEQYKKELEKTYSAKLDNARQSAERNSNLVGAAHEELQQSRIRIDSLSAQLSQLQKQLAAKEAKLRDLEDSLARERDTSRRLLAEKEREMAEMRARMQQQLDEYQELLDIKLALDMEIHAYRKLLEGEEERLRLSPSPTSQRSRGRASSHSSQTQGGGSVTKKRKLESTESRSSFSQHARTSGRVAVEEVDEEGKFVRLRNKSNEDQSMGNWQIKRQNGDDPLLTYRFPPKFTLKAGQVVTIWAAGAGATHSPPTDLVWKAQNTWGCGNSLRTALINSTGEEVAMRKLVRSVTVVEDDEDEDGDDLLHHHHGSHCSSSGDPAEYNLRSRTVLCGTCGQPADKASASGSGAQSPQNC", "assay": "GST pull-down assay of progerin-lamin A binding", "conditions": "5 μM", "protocol": "Fig. 1 SLC-D011 ameliorates premature aging features of HGPS. A. HEK293 cells were transiently transfected with expression vector encoding wild-type lamin A (WT-LA), lamin A-C661A (LA-C661A), progerin, or progerin-C611A. LA-C661A or progerin-C611A with point mutation in CaaX motif was predicted to be lack of farnesylation, […] that of authentic WT-LA or progerin. GFP-conjugated empty expression vector was used as a negative control. Cells were visualized at 24 h after transfection. B Transient transfection of HEK293 cells with expression vector encoding progerin or progerin-G611A leads to reduced expression of H3K9me3 (n = 3 independent experiments; two-tailed Student’s t test). C. JH4 derivatives (JH010 and SLC-D011(D011)) inhibit lamin A and progerin interaction. For binding inhibition assay, bead-conjugated lamin A (GST-LA) was incubated with HEK293 cells, transiently transfected with GFP-progerin (PG), and treated with indicated chemicals. Actin was used as a loading control. PPT, co-precipitated materials with recombinant proteins; Sup supernatant. 5 μM of each chemical was used for binding assay. […] H3K9me3 reduction is a well-known marker for premature aged cells. Thus, H3K9me3 expression was evaluated by immunostaining. […] Cell viability was determined by MTT assay after incubation with chemicals for 7 days (n = 3 independent experiments; two-tailed Student’s t test). […]"}, "CYP3A4": {"target": "CYP3A4 (Homo sapiens, UniProt P08684)", "sequence (P08684 whole entry)": "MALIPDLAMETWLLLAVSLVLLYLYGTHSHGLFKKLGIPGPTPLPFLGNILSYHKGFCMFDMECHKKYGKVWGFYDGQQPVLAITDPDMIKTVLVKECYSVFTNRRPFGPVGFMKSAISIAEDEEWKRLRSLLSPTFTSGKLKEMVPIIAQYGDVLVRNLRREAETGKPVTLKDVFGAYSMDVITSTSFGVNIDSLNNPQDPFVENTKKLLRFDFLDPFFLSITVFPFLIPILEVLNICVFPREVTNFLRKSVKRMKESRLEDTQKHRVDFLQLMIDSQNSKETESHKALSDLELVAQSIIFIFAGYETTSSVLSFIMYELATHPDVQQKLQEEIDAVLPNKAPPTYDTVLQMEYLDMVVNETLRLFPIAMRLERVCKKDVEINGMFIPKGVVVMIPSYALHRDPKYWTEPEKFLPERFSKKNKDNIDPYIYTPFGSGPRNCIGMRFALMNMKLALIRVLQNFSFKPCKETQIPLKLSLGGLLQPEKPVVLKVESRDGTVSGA", "assay": "CYP inhibition, CYP3A4", "type": "in vitro ADME", "protocol": "At pre-set time-points, blood concentration of JH4 was determined by LC-MS/MS analysis[22],[23]. Other chemicals were also tested using similar protocol. In vitro ADME studies (plasma protein binding, CYP inhibition, microsomal stability, plasma stability, and hERG inhibition) were performed by New Drug Development Center (Daegu, Korea) using standard protocols[24],[25]."}},
  "data": [
    {"smiles": "CC1(C)Oc2cc3oc(=O)ccc3cc2C[C@@H]1OC/C=C/c1ccccc1", "note": "[SLC-D011]", "values": [
      {"measurement": "Effect on interaction of progerin and lamin A", "setting": "progerin-lamin A binding", "value": "could block the interaction of progerin and lamin A"},
      {"measurement": "CYP inhibition", "setting": "CYP3A4", "value": 92.5}
    ]}
  ]
}
